The record followed here is ChEMBL document CHEMBL1139592, “Quantitative structure-activity relationship studies for antioxidant hydroxybenzalacetones by quantum chemical- and 3-D-QSAR(CoMFA) analyses” (Bioorg Med Chem Lett, 2005).

The species entered for this test is Oryctolagus cuniculus. Nature of the test: Inhibitory concentration against peroxidation of rabbits red blood cell (RBC) membrane ghost induced by gamma-ray irradiation. In kind it is functional. The conditions noted are these: light or radiation study.

For `CC(=O)/C=C/c1cccc(C(C)(C)C)c1O`, the IC50 (as a rule, the concentration that inhibits the measured activity by half) was 2.19 µM. Turning to `CC(=O)/C=C/c1cc(C(C)(C)C)ccc1O`, half-maximal inhibition (IC50) required 8 µM. Next, `COc1ccc(/C=C/C(C)=O)c(O)c1`: 35.5 µM; `COc1cc(/C=C/C(C)=O)cc(OC)c1O`: 2.52 µM. Regarding `COc1cccc(/C=C/C(C)=O)c1O`, half-maximal inhibition (IC50) required 3.25 µM.

Consider `COc1cc(/C=C/C(C)=O)ccc1O` [DEHYDROZINGERONE], for which the IC50 is 11.5 µM. The figure for `COc1ccc(O)c(/C=C/C(C)=O)c1` is 3.98 µM; for `CC(=O)/C=C/c1ccc(O)c(O)c1` it is 2.34 µM; for `CC(=O)/C=C/c1cc(C)ccc1O` it is 8 µM. `CC(=O)/C=C/c1cccc(C)c1O`: the IC50 was 3.63 µM. `CC(=O)/C=C/c1cccc(O)c1O` gave an IC50 of 1.96 µM.

In turn, `CC(=O)/C=C/c1ccc(O)cc1` had an IC50 of 66.1 µM. The figure for `CC(=O)/C=C/c1cc(O)ccc1O` is 1.43 µM. Take `CC(=O)/C=C/c1ccccc1O`: inhibition was half-maximal at 37.8 µM (IC50). Next, `CCOc1cccc(/C=C/C(C)=O)c1O`: 3.31 µM. The figure for `CC(=O)/C=C/c1cc(Cl)ccc1O` is 60.3 µM; for `CC(=O)/C=C/c1cccc(F)c1O` it is 51.2 µM; for `CC(=O)/C=C/c1cc(C)c(O)c(C)c1` it is 6.32 µM.
